Assay results taken from patent US20250066389A1, “HETEROCYCLIC AMIDES AND METHODS OF USING THE SAME” (Rgenta Therapeutics, Inc., priority 2021, published 2025).
Where a name gives a salt, the structure may show the parent alone.

test system: PMS1; assay: Mini-Gene Reporter Assay—PMS1 (firefly luciferase mini-gene reporter transiently transfected into HEK293 cells); type: cell-based; conditions: Homo sapiens; at 5 uM; mini-gene firefly luciferase reporter in HEK293 cells; read-out: PMS1 % Effect at 5 uM
Source text: Example 76. Mini-Gene Reporter Assay—PMS1
Mini-gene reporter constructs for each target site can be constructed by first PCR amplifying the region-of-interest including the sequence of the alternatively skipped, sequences of the immediate upstream and downstream introns, and sequences of the immediate upstream and downstream exons. Then the 3′ end of the amplified sequence can be ligated to a firefly luciferase reporter gene and cloned into the pcDNA3.1 vector backbone. The final reporter construct can be transiently transfected into HEK293 cells using Lipofectamine 3000 transfection reagents. Compounds that can induce the inclusion of the skipped exon in the reporter construct would increase the reporter firefly luciferase activity.
Test compounds may be diluted in duplicates and dispensed into an assay plate. Transient mini-gene reporter cell line stock is resuspended and dispensed into the assay plate. Assay plates are then centrifuged and incubated. A luciferase reagent (e.g. ONE-Glo firefly luciferase reagent from Promega®) may be added to the assay plate and the luminescence (RLU) signals recorded. EC50 values may be determined by curve fitting in Levenberg-Marquardt algorithm.
In Table D below, A indicates a IC50 (μM)<1 μM, B indicates a IC50 (μM) 1 μM to <10 μM, and C indicates a IC50 (μM) 10 μM to <50 μM. In Table D below, A indicates a >75% Effect at 5 μM μM. B indicates a 50 to <75% Effect at 5 μM μM, and C indicates a <50% Effect at 5 μM.

Compared with `COc1cc2nc(C)cn2cc1C(=O)Nc1ccc(N2C[C@H]3CNC[C@H]3C2)cc1F` [Compound 161, N-(2-fluoro-4-((3aR,6aS)-hexahydropyrrolo[3,4-c]pyrrol-2(1H)-yl)phenyl)-7-methoxy-2-methylimidazo[1,2-a]pyridine-6-carboxamide], `CNC1CCCN(c2ccc(NC(=O)c3cn4cc(C)nc4cc3OC)c(F)c2)C1` (centres unmarked) [Compound 167, N-(2-fluoro-4-(3-(methylamino)piperidin-1-yl)phenyl)-7-methoxy-2-methylimidazo[1,2-a]pyridine-6-carboxamide] is lower in activation at 5 µM: over 75% for the first, 50 to 75% for the second.

`COc1cc2nc(C)cn2cc1C(=O)Nc1ccc(N2CC(C)NCC2C)cc1F` (centres unmarked) [Compound 163, N-(4-(2,5-dimethylpiperazin-1-yl)-2-fluorophenyl)-7-methoxy-2-methylimidazo[1,2-a]pyridine-6-carboxamide] and `COc1cc2nc(C)cn2cc1C(=O)Nc1ccc(N2CCC3CC2CN3)cc1F` (centres unmarked) [Compound 170, N-(4-(2,6-diazabicyclo[3.2.1]octan-2-yl)-2-fluorophenyl)-7-methoxy-2-methylimidazo[1,2-a]pyridine-6-carboxamide] cannot be ordered by activation at 5 µM: over 75% for the first, over 75% for the second.

`CNC1CCN(c2ccc(NC(=O)c3cn4cc(C)nc4cc3OC)c(F)c2)CC1` [Compound 164, N-(2-fluoro-4-(4-(methylamino)piperidin-1-yl)phenyl)-7-methoxy-2-methylimidazo[1,2-a]pyridine-6-carboxamide] and `CCNC1CCN(c2ccc(NC(=O)c3cn4cc(C)nc4cc3OC)c(F)c2)C1` (centres unmarked) [Compound 168, N-(4-(3-(ethylamino)pyrrolidin-1-yl)-2-fluorophenyl)-7-methoxy-2-methylimidazo[1,2-a]pyridine-6-carboxamide] cannot be ordered by activation at 5 µM: over 75% for the first, over 75% for the second.

Going from `CNCC1CCN(c2ccc(NC(=O)c3cn4cc(C)nc4cc3OC)c(F)c2)C1` (centres unmarked) [Compound 166, N-(2-fluoro-4-(3-((methylamino)methyl)pyrrolidin-1-yl)phenyl)-7-methoxy-2-methylimidazo[1,2-a]pyridine-6-carboxamide] to `COc1cc2nc(C)cn2cc1C(=O)Nc1ccc(N2CCC3(CCN3)C2)cc1F` (centres unmarked) [Compound 171, N-(2-fluoro-4-(1,6-diazaspiro[3.4]octan-6-yl)phenyl)-7-methoxy-2-methylimidazo[1,2-a]pyridine-6-carboxamide], the activation at 5 µM rises from under 50% to over 75%.

`COc1cc2nc(C)cn2cc1C(=O)Nc1ccc(N(C)C2CCNCC2)cc1F` [Compound 169, N-(2-fluoro-4-(methyl(piperidin-4-yl)amino)phenyl)-7-methoxy-2-methylimidazo[1,2-a]pyridine-6-carboxamide] and `COc1cc2nc(C)cn2cc1C(=O)Nc1ccc(N2CCC3(CC2)COC(C)CN3)cc1F` (centres unmarked) [Compound 172, N-(2-fluoro-4-(3-methyl-4-oxa-1,9-diazaspiro[5.5]undecan-9-yl)phenyl)-7-methoxy-2-methylimidazo[1,2-a]pyridine-6-carboxamide] fall in the same range of activation at 5 µM: 50 to 75% for the first, 50 to 75% for the second.

With `CCOc1cc2nn(C)cc2cc1C(=O)Nc1ccc(N2CCN[C@@H](C)C2)nn1` [Compound 208, (S)-6-ethoxy-2-methyl-N-(6-(3-methylpiperazin-1-yl)pyridazin-3-yl)-2H-indazole-5-carboxamide HCl Salt] the activation at 5 µM was over 75%.

same assay, conditions: Homo sapiens; mini-gene firefly luciferase reporter in HEK293 cells

`COc1cc2nc(C)cn2cc1C(=O)Nc1ccc(N2CC3CCC(C2)N3)cc1F` [Compound 165, N-(4-(3,8-diazabicyclo[3.2.1]octan-3-yl)-2-fluorophenyl)-7-methoxy-2-methylimidazo[1,2-a]pyridine-6-carboxamide] and `COc1cc2nc(C)cn2cc1C(=O)Nc1ccc(N2CCNC(C)C2)cc1F` (centres unmarked) [Compound 179, N-(2-fluoro-4-(3-methylpiperazin-1-yl)phenyl)-7-methoxy-2-methylimidazo[1,2-a]pyridine-6-carboxamide] cannot be ordered by IC50: under 1 µM for the first, under 1 µM for the second.

First: COc1cc2nc(C)cn2cc1C(=O)Nc1ccc(N2CCNC(CC(F)F)C2)cc1F (centres unmarked) [Compound 173, N-(4-(3-(2,2-difluoroethyl)piperazin-1-yl)-2-fluorophenyl)-7-methoxy-2-methylimidazo[1,2-a]pyridine-6-carboxamide]
Second: CNC1CCN(c2ccc(NC(=O)c3cn4cc(C)nc4cc3OC)c(F)c2)C1 (centres unmarked) [Compound 176, N-(2-fluoro-4-(3-(methylamino)pyrrolidin-1-yl)phenyl)-7-methoxy-2-methylimidazo[1,2-a]pyridine-6-carboxamide]
The IC50 of the first is higher: 1 to 10 µM for the first, under 1 µM for the second.

`COc1cc2nc(C)cn2cc1C(=O)Nc1ccc(N2CCCNCC2)cc1F` [Compound 175, N-(4-(1,4-diazepan-1-yl)-2-fluorophenyl)-7-methoxy-2-methylimidazo[1,2-a]pyridine-6-carboxamide] and `COc1cc2nc(C)cn2cc1C(=O)Nc1ccc(N2CCNCC2C)cc1F` (centres unmarked) [Compound 177, N-(2-fluoro-4-(2-methylpiperazin-1-yl)phenyl)-7-methoxy-2-methylimidazo[1,2-a]pyridine-6-carboxamide] cannot be ordered by IC50: under 1 µM for the first, under 1 µM for the second.

`COc1cc2nc(C)cn2cc1C(=O)Nc1ccc(N(C)C2CCNC2)cc1F` (centres unmarked) [Compound 178, N-(2-fluoro-4-(methyl(pyrrolidin-3-yl)amino)phenyl)-7-methoxy-2-methylimidazo[1,2-a]pyridine-6-carboxamide] and `COc1cc2nc(C)cn2cc1C(=O)Nc1ccc(N(C)C2CNC2)cc1F` [Compound 180, N-(4-(azetidin-3-yl(methyl)amino)-2-fluorophenyl)-7-methoxy-2-methylimidazo[1,2-a]pyridine-6-carboxamide] cannot be ordered by IC50: under 1 µM for the first, under 1 µM for the second.

`COc1cc2nc(C)cn2cc1C(=O)Nc1cnc(N2CCN[C@@H](C)C2)cn1` [Compound 198, (S)-7-methoxy-2-methyl-N-(5-(3-methylpiperazin-1-yl)pyrazin-2-yl)imidazo[1,2-a]pyridine-6-carboxamide hydrochloride] and `Cc1cn2cc(C(=O)Nc3ccc(N4CCN[C@@H](C)C4)nn3)c(OC(C)C)cc2n1` [Compound 199, (S)-7-isopropoxy-2-methyl-N-(6-(3-methylpiperazin-1-yl)pyridazin-3-yl)imidazo[1,2-a]pyridine-6-carboxamide] cannot be ordered by IC50: under 1 µM for the first, under 1 µM for the second.

`Cc1cn2cc(C(=O)Nc3ccc(N4CCNCC4)nn3)c(OC3CCC3)cc2n1` [Compound 205, 7-cyclobutoxy-2-methyl-N-(6-(piperazin-1-yl)pyridazin-3-yl)imidazo[1,2-a]pyridine-6-carboxamide hydrochloride] and `Cn1cc2cc(C(=O)Nc3ccc(N4CCNCC4)nn3)c(OC3CCC3)cc2n1` [Compound 207, 6-cyclobutoxy-2-methyl-N-(6-(piperazin-1-yl)pyridazin-3-yl)-2H-indazole-5-carboxamide HCl Salt] cannot be ordered by IC50: under 1 µM for the first, under 1 µM for the second.

Compared with `Cc1cn2cc(C(=O)Nc3ccc(N4CCN[C@@H](C)C4)nn3)c(OC3CCOC3)cc2n1` (stereo partly drawn) [Compound 206, 2-methyl-N-(6-((S)-3-methylpiperazin-1-yl)pyridazin-3-yl)-7-((tetrahydrofuran-3-yl)oxy)imidazo[1,2-a]pyridine-6-carboxamide hydrochloride], `Cc1cn2cc(C(=O)Nc3ccc(N4CCN[C@@H](C)C4)nn3)c(O[C@@H]3CCOC3)cc2n1` [Compound 212, 2-methyl-N-(6-((S)-3-methylpiperazin-1-yl)pyridazin-3-yl)-7-((tetrahydrofuran-3-yl)oxy)imidazo[1,2-a]pyridine-6-carboxamide] is higher in IC50: under 1 µM for the first, 1 to 10 µM for the second.

`CCOc1cc2nn(C)cc2cc1C(=O)Nc1ccc(N2CCN[C@@H](C)C2)nn1` [Compound 208, (S)-6-ethoxy-2-methyl-N-(6-(3-methylpiperazin-1-yl)pyridazin-3-yl)-2H-indazole-5-carboxamide HCl Salt] and `C[C@H]1CN(c2ccc(NC(=O)c3cc4cn(C)nc4cc3OC3CCC3)nn2)CCN1` [Compound 209, (S)-6-cyclobutoxy-2-methyl-N-(6-(3-methylpiperazin-1-yl)pyridazin-3-yl)-2H-indazole-5-carboxamide HCl Salt] cannot be ordered by IC50: under 1 µM for the first, under 1 µM for the second.

`CCOc1cc2nc(C)cn2cc1C(=O)Nc1ccc(N2CCNC3(CC3)C2)nn1` [Compound 210, N-(6-4,7-diazaspiro[2.5]octan-7-ylpyridazin-3-yl)-7-ethoxy-2-methylimidazo[1,2-a]pyridine-6-carboxamide] and `Cc1cn2cc(C(=O)Nc3ccc(N4CCN[C@@H](C)C4)nn3)c(O[C@H]3CCOC3)cc2n1` [Compound 213, 2-methyl-N-(6-((S)-3-methylpiperazin-1-yl)pyridazin-3-yl)-7-((tetrahydrofuran-3-yl)oxy)imidazo[1,2-a]pyridine-6-carboxamide] cannot be ordered by IC50: under 1 µM for the first, under 1 µM for the second.

First: Cc1cn2cc(C(=O)Nc3ccc(N4CCN[C@@H](C)C4)nn3)c(OC3CCOCC3)cc2n1 [Compound 211, (S)-2-methyl-N-(6-(3-methylpiperazin-1-yl)pyridazin-3-yl)-7-((tetrahydro-2H-pyran-4-yl)oxy)imidazo[1,2-a]pyridine-6-carboxamide hydrochloride]
Second: CCc1nc(C(=O)Nc2ccc(N3CCN[C@@H](C)C3)nn2)cn2cc(C)nc12 [Compound 214, 8-ethyl-2-methyl-N-{6-[(3S)-3-methylpiperazin-1-yl]pyridazin-3-yl}imidazo[1,2-a]pyrazine-6-carboxamide]
The IC50 of the first is higher: 10 to 50 µM for the first, under 1 µM for the second. The second is the more potent here.

Compound `CCOc1cn2nc(C)cc2cc1C(=O)Nc1ccc(N2CCN[C@@H](C)C2)nn1` [Compound 215, (S)-6-ethoxy-2-methyl-N-(6-(3-methylpiperazin-1-yl)pyridazin-3-yl)pyrazolo[1,5-a]pyridine-5-carboxamide HCl Salt] has an IC50 of under 1 µM.
